Laboratory results published in paper PMC9671962 (Communications Biology, 2022).
Where “and” joins values, the source holds several entries; their conditions need not be identical. Equal entries are not always repeated.

Assays:
Assay type in all cases: in vivo
[1] = Mouse weight over time / tolerability in PDX efficacy study (Fig. 1f)
Procedure: (§1) The use of 2 mice per arm was based on the previously reported statistical analysis. PDX tumors were implanted into the right flank of 5 to 6-weeks old female mice weighing about 20–25 grams. […] Two additional dose levels of 12, and 24 MBq/kg/fraction were assessed in a subset of models and were administered as stated above. In two models treated at the 24 MBq/kg/fraction dose level we re-challenged tumor response at the time of tumor progression with an additional 4 dose fractions at 24 MBq/kg/fraction given twice weekly. Doses were prepared in 500 µL total volume. An equal volume of saline was used for the vehicle group. Tumors were measured using a digital caliper at the initiation of the study and two times per week during the treatment period. Tumor volumes were calculated as volume = ([…]∗0.5236)/1000. Weights were obtained twice weekly and mice were monitored daily for signs of toxicity. […] Tumor response was assessed by best response defined as greatest reduction in tumor volume following the last dose and is presented as percent change in tumor volume. Event-free survival was determined by area over the curve method that calculates the time to tumor event, which was defined as tumors reaching or exceeding a size ≥ 2 cm^3.

[2] = system: NB-SDx; test: Pre-clinical efficacy study, NB-SDx PDX; details: single mouse
Procedure: (§2) Patient demographics and genetic characteristics are listed in (Supplementary Tables 1, 2)[17]. The maximum tolerated dose (MTD) was determined to be 36 MBq/kg administered by intra-peritoneal injection twice weekly for a total of 4 dose fractions and this fractionated regimen was used in all studies (Supplementary Fig. 1)[18],[19]. […] Nine of 11 PDX models were MYCN amplified (Fig. 1b), which is a hallmark of high-risk neuroblastoma. Tumor response was measured as the maximum percent decrease in tumor volume after treatment and event-free survival (EFS) was measured by the area over the curve method with tumor events pre-defined by tumor growth exceeding 2 cm[3],[18].
as §1
Animal studies were performed in female mice due to the lack of sex-related differences for [^211At]PTT tolerability from initial dose response studies performed in female and male mice. Female mice were chosen due to their underlying behavior towards other study subjects that reduced nonstudy-related causes for decreased wellness. Pre-clinical efficacy studies were performed through “single mouse testing” to more closely recapitulate a clinical trial. […] Number size for treatment groups was determined by model tumor growth reproducibility, which was previously shown to have less than 5% normal variation with at least two animals. […] Event free survival was measured by area over the curve method to quantify time to event, which was set as tumor growth exceeding 2 cm[3],[19]. […]

[3] = system: NB-1691x; test: Pre-clinical efficacy study, NB-1691x PDX; details: 36 MBq/kg/fraction x 4 fractions, single mouse
Procedure: as §2
The use of 2 mice per arm was based on the previously reported statistical analysis. […] Two additional dose levels of 12, and 24 MBq/kg/fraction were assessed in a subset of models and were administered as stated above. […] Tumors were measured using a digital caliper at the initiation of the study and two times per week during the treatment period. Tumor volumes were calculated as volume = ((diameter^1/2 + diameter^2/2)^3∗0.5236)/1000. Weights were obtained twice weekly and mice were monitored daily for signs of toxicity. […] Tumor response was assessed by best response defined as greatest reduction in tumor volume following the last dose and is presented as percent change in tumor volume. […]

[4] = 24 MBq/kg/fraction x 4 fractions
[5] = 36 MBq/kg/fraction x 4 fractions

With `O=C1NCCn2c(-c3ccc([211At])cc3)nc3cccc1c32` [[^211At]PTT, Astatine-211-parthanatine] the “Percent Body Weight from study initiation” value (“Percent Body Weight” for short) ([1]; COG415-325, 12 MBq/kg/fraction x 4, 0.4 Weeks) was 100.48% and 95.77%, the “Percent Body Weight” value ([1]; COG415-325, 12 MBq/kg/fraction x 4, 1 Weeks) was 100.97% and 94.84% and the “Percent Body Weight” value ([1]; COG415-325, 12 MBq/kg/fraction x 4, 1.4 Weeks) was 100% and 92.96%. For the same molecule, the “Percent Body Weight” value ([1]; COG415-325, 12 MBq/kg/fraction x 4, 2 Weeks) was 97.58% and 92.96%, the “Percent Body Weight” value ([1]; COG415-325, 12 MBq/kg/fraction x 4, 2.4 Weeks) was 103.86% and 98.12% and the “Percent Body Weight” value ([1]; COG415-325, 12 MBq/kg/fraction x 4, 3 Weeks) was 102.42% and 99.53%. The “Percent Body Weight” value ([1]; COG415-325, 12 MBq/kg/fraction x 4, 3.4 Weeks) was 108.7% and 102.35%, the “Percent Body Weight” value ([1]; COG415-325, 12 MBq/kg/fraction x 4, 4 Weeks) was 111.11% and 110.33% and the “Percent Body Weight” value ([1]; COG415-650, 24 MBq/kg/fraction x 4, 0.4 Weeks) was 102.79% and 99.52%. The “Percent Body Weight” value ([1]; COG415-650, 24 MBq/kg/fraction x 4, 1 Weeks) was 96.74% and 92.82%, the “Percent Body Weight” value ([1]; COG415-650, 24 MBq/kg/fraction x 4, 1.4 Weeks) was 92.56% and 90.43% and the “Percent Body Weight” value ([1]; COG415-650, 24 MBq/kg/fraction x 4, 2 Weeks) was 90.23% and 87.56%. For the same molecule, the “Percent Body Weight” value ([1]; COG415-650, 24 MBq/kg/fraction x 4, 2.4 Weeks) was 93.49% and 92.34%, the “Percent Body Weight” value ([1]; COG415-650, 24 MBq/kg/fraction x 4, 3 Weeks) was 100.93% and 99.04% and the “Percent Body Weight” value ([1]; COG415-650, 24 MBq/kg/fraction x 4, 3.4 Weeks) was 100% and 96.65%. The “Percent Body Weight” value ([1]; COG415-650, 24 MBq/kg/fraction x 4, 4 Weeks) was 102.33% and 99.04%, the “Percent Body Weight” value ([1]; COG415-650, 24 MBq/kg/fraction x 4, 4.4 Weeks) was 106.05% and 102.39% and the “Percent Body Weight” value ([1]; COG415-650, 24 MBq/kg/fraction x 4, 5 Weeks) was 107.44% and 96.65%. For the same molecule, the “Percent Body Weight” value ([1]; COG415-650, 24 MBq/kg/fraction x 4, 5.4 Weeks) was 111.63% and 101.91%, the “Percent Body Weight” value ([1]; COG415-650, 24 MBq/kg/fraction x 4, 6 Weeks) was 104.31% and the “Percent Body Weight” value ([1]; COG415-975, 36 MBq/kg/fraction x 4, 0 Weeks) was 100%. The “Percent Body Weight” value ([1]; COG415-975, 36 MBq/kg/fraction x 4, 0.4 Weeks) was 94.07% and 98.23%, the “Percent Body Weight” value ([1]; COG415-975, 36 MBq/kg/fraction x 4, 1 Weeks) was 84.75% and 90.71% and the “Percent Body Weight” value ([1]; COG415-975, 36 MBq/kg/fraction x 4, 1.4 Weeks) was 80.51% and 90.27%. The “Percent Body Weight” value ([1]; COG415-975, 36 MBq/kg/fraction x 4, 2 Weeks) was 72.88% and 79.65%, the “Percent Body Weight” value ([1]; COG415-975, 36 MBq/kg/fraction x 4, 2.4 Weeks) was 77.97% and 83.63% and the “Percent Body Weight” value ([1]; COG415-975, 36 MBq/kg/fraction x 4, 3 Weeks) was 80.08% and 81.86%. For the same molecule, the “Percent Body Weight” value ([1]; COG415-975, 36 MBq/kg/fraction x 4, 3.4 Weeks) was 75.42% and 81.42%, the “Percent Body Weight” value ([1]; COG415-975, 36 MBq/kg/fraction x 4, 4 Weeks) was 80.93% and 80.09% and the “Percent Body Weight” value ([1]; COG415-975, 36 MBq/kg/fraction x 4, 4.4 Weeks) was 82.2% and 82.3%. The “Percent Body Weight” value ([1]; COG415-975, 36 MBq/kg/fraction x 4, 5 Weeks) was 88.56% and 88.05%, the “Percent Body Weight” value ([1]; COG415-975, 36 MBq/kg/fraction x 4, 5.4 Weeks) was 88.98% and 91.59% and the “Percent Body Weight” value ([1]; COG415-975, 36 MBq/kg/fraction x 4, 6.1 Weeks) was 96.19% and 92.48%. The “Percent Body Weight” value ([1]; COG415-975, 36 MBq/kg/fraction x 4, 6.4 Weeks) was 94.07% and 90.71%, the “Percent Body Weight” value ([1]; COG415-975, 36 MBq/kg/fraction x 4, 7 Weeks) was 99.58% and 93.36% and the “Percent Body Weight” value ([1]; COG415-975, 36 MBq/kg/fraction x 4, 7.4 Weeks) was 101.27% and 93.36%. For the same molecule, the “Percent Body Weight” value ([1]; COG415-975, 36 MBq/kg/fraction x 4, 8 Weeks) was 95.48%, the “Percent Body Weight” value ([1]; COG415-975, 36 MBq/kg/fraction x 4, 8.9 Weeks) was 100.44% and the “Percent Body Weight” value ([1]; COG415-975, 36 MBq/kg/fraction x 4, 9.4 Weeks) was 100.88%. For the same molecule, the “Percent Body Weight” value ([1]; COG415-975, 36 MBq/kg/fraction x 4, 10 Weeks) was 101.77%, the “Percent Body Weight” value ([1]; COG415-975, 36 MBq/kg/fraction x 4, 10.4 Weeks) was 103.98% and the “Percent Body Weight” value ([1]; COG415-975, 36 MBq/kg/fraction x 4, 11 Weeks) was 107.08%. The “Percent Body Weight” value ([1]; COG415-975, 36 MBq/kg/fraction x 4, 12 Weeks) was 105.31%, the “Percent Body Weight” value ([1]; COG519-325, 12 MBq/kg/fraction x 4, 0 Weeks) was 100% and the “Percent Body Weight” value ([1]; COG519-325, 12 MBq/kg/fraction x 4, 0.4 Weeks) was 100% and 97.98%. The “Percent Body Weight” value ([1]; COG519-325, 12 MBq/kg/fraction x 4, 1 Weeks) was 93.83% and 96.97%, the “Percent Body Weight” value ([1]; COG519-650, 24 MBq/kg/fraction x 4, 0 Weeks) was 100% and the “Percent Body Weight” value ([1]; COG519-650, 24 MBq/kg/fraction x 4, 0.4 Weeks) was 97.69% and 96.86%. For the same molecule, the “Percent Body Weight” value ([1]; COG519-650, 24 MBq/kg/fraction x 4, 1 Weeks) was 95.37% and 97.38%, the “mice censored from EFS analysis due to weight loss >20%” value ([1]; MTD, two out of 22 mice, >50 days from treatment) was 9% and the “Percent Body Weight” value ([1]; NBSD-650, 24 MBq/kg/fraction x 4, 2.6 Weeks) was 90.4306% and 91.4027%. For the same molecule, the “Percent Body Weight” value ([1]; NBSD-650, 24 MBq/kg/fraction x 4, 3 Weeks) was 94.7368% and 92.3077%, the “Percent Body Weight” value ([1]; NBSD-650, 24 MBq/kg/fraction x 4, 3.6 Weeks) was 95.2153% and 92.7602% and the “Percent Body Weight” value ([1]; NBSD-650, 24 MBq/kg/fraction x 4, 4 Weeks) was 98.0861%. The “Percent Body Weight” value ([1]; NBSD-975, 36 MBq/kg/fraction x 4, 2.6 Weeks) was 84.141% and 86.3636%, the “Percent Body Weight” value ([1]; NBSD-975, 36 MBq/kg/fraction x 4, 3 Weeks) was 81.9383% and 87.8788% and the “Percent Body Weight” value ([1]; NBSD-975, 36 MBq/kg/fraction x 4, 3.6 Weeks) was 81.4978% and 88.3838%. The “dose-limiting toxicity observed (number)” value ([1]; NE-EBC1x tumor-bearing mouse re-challenged with 24 MBq/kg fractionated regimen) was “One”, the “treated mice that maintained a healthy weight throughout the study (≥100 ± 20% body weight)” value ([1]; all dose levels) was 43 of 46 and the “EFS by AOC method” value [2, 4] was 44.1 days and 46.5 days and 44.0589 days and 46.4742 days. The “Tumor response (% growth from study initiation at ~ 200 mm3)” value [2, 4] was -80.9524% and -80%, the “EFS by AOC method” value [2, 5] was 59.408 days and 51.1551 days and the “Tumor response (% growth from study initiation at ~ 200 mm3)” value [2, 5] was -96.9697% and -85.7143%. For the same molecule, the “EFS by AOC method” value [3] was 50.9799 days and 78.469 days and the “Tumor response (% growth from study initiation at ~ 200 mm3)” value [3] was -100%.
